Results reported in patent US10316039B2, “P2X3 and/or P2X2/3 compounds and methods” (Asana Biosciences, LLC, priority 2013, dated 2019).

Columns and labels:
[1] = biological target: T1, P2X2/3 (Homo sapiens, UniProt P56373+Q9UBL9); assay: P2X2/3 FLIPR intracellular calcium assay; format: cell-based; details: agonist at EC75, species (human or rat) not given
T1 sequence (Q9UBL9 1-471): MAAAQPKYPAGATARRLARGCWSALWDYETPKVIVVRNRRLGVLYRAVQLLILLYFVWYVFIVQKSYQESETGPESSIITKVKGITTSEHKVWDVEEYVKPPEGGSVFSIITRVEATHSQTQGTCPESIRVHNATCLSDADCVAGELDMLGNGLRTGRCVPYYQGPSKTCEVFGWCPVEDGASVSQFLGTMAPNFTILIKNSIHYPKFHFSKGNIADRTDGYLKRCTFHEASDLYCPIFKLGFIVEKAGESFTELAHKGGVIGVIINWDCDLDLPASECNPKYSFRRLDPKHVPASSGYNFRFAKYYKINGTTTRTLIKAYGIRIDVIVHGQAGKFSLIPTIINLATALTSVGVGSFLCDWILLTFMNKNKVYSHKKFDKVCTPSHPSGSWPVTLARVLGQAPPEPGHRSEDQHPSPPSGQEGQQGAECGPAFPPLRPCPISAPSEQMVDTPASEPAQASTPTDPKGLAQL
T1 sequence (P56373 1-397): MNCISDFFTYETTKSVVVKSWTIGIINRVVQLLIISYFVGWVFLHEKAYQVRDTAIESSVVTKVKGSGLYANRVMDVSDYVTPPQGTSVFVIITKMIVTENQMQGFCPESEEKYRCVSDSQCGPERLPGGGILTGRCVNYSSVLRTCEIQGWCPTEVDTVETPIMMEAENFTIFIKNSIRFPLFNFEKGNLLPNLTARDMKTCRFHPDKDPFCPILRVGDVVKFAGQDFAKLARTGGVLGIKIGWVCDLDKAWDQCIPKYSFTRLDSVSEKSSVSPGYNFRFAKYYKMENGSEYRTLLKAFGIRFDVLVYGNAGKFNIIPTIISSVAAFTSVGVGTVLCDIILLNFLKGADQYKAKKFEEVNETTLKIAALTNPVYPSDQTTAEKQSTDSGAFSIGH
Description: The FLIPR® assay utilizes cells which express human or rat P2X3 or P2X2/3 receptors. Recombinant cells expressing hP2X3 (Cat#6188) and hP2X2/3 (Cat#6179) were procured from Chantest Corp. Rat P2X2 (NCBI Accession No: U14414) was amplified by PCR from PC12 cDNA (a rat adrenal medulla cell line). The PCR product obtained containing the protein coding sequence of rat P2X2 was cloned into EcoRV-digested and dephosphorylated vector pIRES-puro3 within the multiple cloning site (MCS). See, FIG. 1A.
(§1) Transfection was carried out using super-coiled constructs (purified using QIAGEN kit) in antibiotic free, serum free DMEM using Lipofectamine® 2000 (Invitrogen) transfection agent. The DNA constructs rat P2X2 in pIRES-Puro3 and rat P2X3 in pCDNA5/TO were co-transfected into TRex293 cells in order to generate the rP2X2/3 stable line. 50 μg/mL hygromycin (Invitrogen) and 0.5 μg/mL puromycin (Fermentek) were used for selection of stable clones of rP2X2/3. Rat P2X3 in pCDNA5/TO DNA construct was transfected to CHO-TRex cells to generate the rP2×3 stable line and 500 μg/mL hygromycin (Invitrogen) was used as selection antibiotic. Transfected stable colonies were then functionally verified and robust clones suitable for assay were clonally purified through dilutions.
(§2) Cryo-vial containing 6×10^6 cells (human P2X3-HEK/human P2X2/3-TRex293/rat P2X2/3-TRex293/rat P2X3 TRex-CHO) was thawed in a 37° C. water bath. Cells were suspended in 20 mL of respective cell plating media (See annexure for composition) in a 50 mL centrifuge tube. The cell viability was checked with the help of Trypan Blue dye. Upon washing, cells were plated in a black 384-well clear bottomed, sterile poly-D-lysine coated plate such that, each well contained 10,000 cells (15,000/well for hP2X3) in 30 μL cell plating media. The plate was incubated in a 5% CO2 incubator at 37° C. for 24 h.
(§3) The next day, prior to the assay, the cell plating media was removed from each well by decanting and gentle tapping. Thirty μL of FLIPR Calcium 4 dye solution was added to each well. The plate was incubated at 37° C. for 45 min (60 min for hP2X3). The plate was next equilibrated at room temperature for 15 minutes before placing it in a 384 well FLIPR for the assay.
Compounds were dissolved in DMSO and serially diluted following 11 point half log (3.16 fold) dilution with a starting concentration of 2 mM. Dilutions were mixed with assay buffer just before performing the assay.
(§4) Compounds were added to the respective wells of the assay-ready cell plate with the help of the FLIPR and fluorescence readings were captured for 5 min to observe any possible agonistic property of the compounds. The plate was then incubated at room temperature for 15 min. The cells were stimulated with respective agonist EC75 concentration and the fluorescence readings were captured for another 5 min by FLIPR. The difference in fluorescence readings in presence of the compounds were compared with that of the control wells (wells having no compound) to calculate the inhibitory potency of the compounds. The IC50 values of the compounds were determined using the Graph pad Prism software.
(ii) Cell Plating Media for hP2X3-HEK and hP2X2/3-TRex293 Cells • DMEM/F12 (1:1) HAM media (Invitrogen; Cat#11039) • 1×NEAA (Invitrogen; Cat#11140) • 25 mM HEPES (Invitrogen; Cat#15630) • 1 mM sodium pyruvate (Invitrogen; Cat#11360) • 10% tetracycline negative FBS (PAA; Cat# A15-209) • 1 μg/mL doxycycline (Clontech; Cat#63131) [for hP2X2/3-TRex293 cells only]
(iii) Cell Plating Media for rP2X2/3-TRex293 Cells • DMEM media (Invitrogen; Cat#11965) • 25 mM HEPES (Invitrogen; Cat#15630) • 10% tetracycline negative FBS (PAA; Cat# A15-209) • 1 μg/mL Doxycycline (Clontech; Cat#63131)
(v) Assay Buffer Composition • HBSS (Invitrogen Cat#14025) • 20 mM HEPES (Invitrogen Cat#15630) • 0.01% F127 (Sigma Cat# P2443) • 1.8 mM CaCl2 (Sigma Cat# C5080) • pH adjusted to 7.4 […]

[2] = biological target: T2, P2X3 (UniProt P56373); assay: P2X3 FLIPR intracellular calcium assay; format: cell-based; details: agonist at EC75, species (human or rat) not given
T2 sequence (P56373 1-397): T1 sequence (P56373 1-397)
Description: The FLIPR® assay utilizes cells which express human or rat P2X3 or P2X2/3 receptors. […] The PCR product obtained containing the protein coding sequence of rat P2X2 was cloned into EcoRV-digested and dephosphorylated vector pIRES-puro3 within the multiple cloning site (MCS). See, FIG. 1A.
Rat P2X3 (NCBI Accession No: X91167) was amplified by PCR from rat brain cDNA. The PCR product obtained containing the protein coding sequence of rat P2X3 was cloned into EcoRV-digested and dephosphorylated vector pCDNA-Hygro within the multiple cloning site (MCS) (FIG. 1B). Rat P2X3 cloned into pcDNA-Hygro was then subcloned into pcDNA-5/TO at HindIII (5′) and XhoI (3′) sites within the multiple cloning site (MCS) of the vector (FIG. 1C).
as §1, §2, §3
Dilutions were mixed with assay buffer just before performing the assay.
as §4
(vi) Dye Solution Composition • 1×FLIPR Calcium 4 dye in assay buffer (Molecular devices Cat# R8141) • 1.8 mM Probenecid (Sigma Cat# P8761) • pH adjusted to 7.4

Structure (SMILES) | IC50 [1] | IC50 [2]
Cc1noc(C(C)NC(=O)c2cc(-n3nnnc3C(F)F)c3ncc(-c4ccc(C)s4)n3c2)n1 (stereo in doubt) [Example 19, (R)-8-(5-(Difluoromethyl)-1H-tetrazol-1-yl)-N-(1-(3-methyl-1,2,4-oxadiazol-5-yl)ethyl)-3-(5-methylthiophen-2-yl)imidazo[1,2-a]pyridine-6-carboxamide] | 0.001 to 0.1 µM | 0.001 to 0.1 µM
CCc1nnc(-c2cc(C(=O)N[C@@H](C)c3nnc[nH]3)cn3c(-c4ccc(C)s4)cnc23)o1 [Example 1, (S)—N-(1-(4H-1,2,4-Triazol-3-yl)ethyl)-8-(5-ethyl-1,3,4-oxadiazol-2-yl)-3-(5-methylthiophen-2-yl)imidazo[1,2-a]pyridine-6-carboxamide] | 1 to 10 µM | 0.1 to 1 µM
Cc1ccc(CNC(=O)c2cc(-n3c(C)cnc3C)c3ncc(-c4ccc(C)s4)n3c2)cn1 [Example 2, 8-(2,5-Dimethyl-1H-imidazol-1-yl)-N-((6-methylpyridin-3-yl)methyl)-3-(5-methylthiophen-2-yl)imidazo[1,2-a]pyridine-6-carboxamide] | 0.1 to 1 µM | > 10 µM
Cc1ccc(-c2cnc3c(-n4c(C)nnc4C)cc(C(=O)N[C@@H](C)c4nnc[nH]4)cn23)s1 [Example 3, (S)—N-(1-(4H-1,2,4-Triazol-3-yl)ethyl)-8-(3,5-dimethyl-4H-1,2,4-triazol-4-yl)-3-(5-methylthiophen-2-yl)imidazo[1,2-a]pyridine-6-carboxamide] | 0.1 to 1 µM | 1 to 10 µM
Cc1ccc(-c2cnc3c(-n4nncc4C(F)F)cc(C(=O)N[C@@H](C)c4nnc[nH]4)cn23)s1 [Example 4, (S)—N-(1-(4H-1,2,4-Triazol-3-yl)ethyl)-8-(5-(difluoromethyl)-1H-1,2,3-triazol-1-yl)-3-(5-methylthiophen-2-yl)imidazo[1,2-a]pyridine-6-carboxamide] | 0.001 to 0.1 µM | 0.001 to 0.1 µM
Cc1ccc(CNC(=O)c2cc(-n3nncc3C(F)F)c3ncc(-c4nnc(C)s4)n3c2)cn1 [Example 5, 8-(5-(Difluoromethyl)-1H-1,2,3-triazol-1-yl)-3-(5-methyl-1,3,4-thiadiazol-2-yl)-N-((6-methylpyridin-3-yl)methyl)imidazo[1,2-a]pyridine-6-carboxamide] | 0.1 to 1 µM | 0.1 to 1 µM
CCc1ccnn1-c1cc(C(=O)NCc2ccc(C)nc2)cn2c(-c3ccc(C)s3)cnc12 [Example 6, 8-(5-Ethyl-1H-pyrazol-1-yl)-N-((6-methylpyridin-3-yl)methyl)-3-(5-methylthiophen-2-yl)imidazo[1,2-a]pyridine-6-carboxamide] | 0.1 to 1 µM | > 10 µM
Cc1ccc(-c2cnc3c(Nc4ccccc4)cc(C(=O)N[C@@H](C)c4nnc[nH]4)cn23)s1 [Example 7, (S)—N-(1-(4H-1,2,4-Triazol-3-yl)ethyl)-3-(5-methylthiophen-2-yl)-8-(phenylamino)imidazo[1,2-a]pyridine-6-carboxamide] | 0.1 to 1 µM | 0.001 to 0.1 µM
Cc1ccc(-c2cnc3c(-c4cnn(C)c4)cc(C(=O)N[C@@H](C)c4nnc[nH]4)cn23)s1 [Example 8, (S)—N-(1-(4H-1,2,4-Triazol-3-yl)ethyl)-8-(1-methyl-1H-pyrazol-4-yl)-3-(5-methylthiophen-2-yl)imidazo[1,2-a]pyridine-6-carboxamide] | 0.1 to 1 µM | 0.001 to 0.1 µM
CCCSc1cnc2c(N3CCC(C)CC3)cc(C(=O)N[C@@H](C)c3nnc[nH]3)cn12 [Example 10, (S)—N-(1-(4H-1,2,4-Triazol-3-yl)ethyl)-8-(4-methylpiperidin-1-yl)-3-(propylthio)imidazo[1,2-a]pyridine-6-carboxamide] | 1 to 10 µM | 0.1 to 1 µM
Cc1ccc(-c2cnc3c(N4CCC(C)CC4)cc(C(=O)N[C@@H](C)c4nnc[nH]4)cn23)s1 [Example 11, (S)—N-(1-(4H-1,2,4-Triazol-3-yl)ethyl)-8-(4-methylpiperidin-1-yl)-3-(5-methylthiophen-2-yl)imidazo[1,2-a]pyridine-6-carboxamide] | 0.1 to 1 µM | 0.001 to 0.1 µM
Cc1ccc(-c2cnc3c(N4CCC(C)(C(N)=O)CC4)cc(C(=O)N[C@@H](C)c4nnc[nH]4)cn23)s1 [Example 12, (S)—N-(1-(4H-1,2,4-Triazol-3-yl)ethyl)-8-(4-carbamoyl-4-methylpiperidin-1-yl)-3-(5-methylthiophen-2-yl)imidazo[1,2-a]pyridine-6-carboxamide] | 0.001 to 0.1 µM | 0.001 to 0.1 µM
Cc1ccc(CNC(=O)c2cc(N3CCN(C(N)=O)CC3)c3ncc(-c4ccc(C)s4)n3c2)cn1 [Example 13, 8-(4-Carbamoylpiperazin-1-yl)-N-((6-methylpyridin-3-yl)methyl)-3-(5-methylthiophen-2-yl)imidazo[1,2-a]pyridine-6-carboxamide] | 0.1 to 1 µM | > 10 µM
Cc1ccc(CNC(=O)c2cc(-n3nncc3C(F)F)c3ncc(-c4ccc(C)s4)n3c2)cn1 [Example 27] | – | 0.001 to 0.1 µM
Cc1ccc(-c2cnc3c(N4CCC(F)(F)CC4)cc(C(=O)N[C@@H](C)c4cc[nH]n4)cn23)s1 [Example 143] | – | 1 to 10 µM
COc1ccc(CNC(=O)c2cc(-n3nnnc3C3CCC3)c3ncc(-c4ccc(C)s4)n3c2)cc1 [Example 163] | – | > 10 µM
